# Assay results as given in PubChem BioAssay (NCI).
#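 All cell lines were grown in 96-well plates and treated with compound for 48 hours. TGI denotes the concentration required for complete inhibition of growth.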
# Tests used:
# Test in all cases: NCI anticancer screen, dose series, 48 h
# 786-0 renal = system: 786-0 renal
# A549 NSCLC = system: A549 NSCLC
# ACHN renal = system: ACHN renal
# CAKI-1 renal = system: CAKI-1 renal
# CCRF-CEM leukemia = system: CCRF-CEM leukemia
# DLD-1 colon = system: DLD-1 colon
# DMS 114 small cell lung = system: DMS 114 small cell lung
# EKVX NSCLC = system: EKVX NSCLC
# HCT-116 colon = system: HCT-116 colon
# HCT-15 colon = system: HCT-15 colon
# HL-60(TB) leukemia = system: HL-60(TB) leukemia
# HOP-62 NSCLC = system: HOP-62 NSCLC
# HOP-92 NSCLC = system: HOP-92 NSCLC
# HT29 colon = system: HT29 colon
# IGROV1 ovarian = system: IGROV1 ovarian
# K-562 leukemia = system: K-562 leukemia
# KM12 colon = system: KM12 colon
# LOX IMVI melanoma = system: LOX IMVI melanoma
# LXFL 529 NSCLC = system: LXFL 529 NSCLC
# M14 melanoma = system: M14 melanoma
# M19-MEL melanoma = system: M19-MEL melanoma
# MALME-3M melanoma = system: MALME-3M melanoma
# MOLT-4 leukemia = system: MOLT-4 leukemia
# NCI-H226 lung = system: NCI-H226 lung
# NCI-H460 lung = system: NCI-H460 lung
# NCI-H522 lung = system: NCI-H522 lung
# OVCAR-3 ovarian = system: OVCAR-3 ovarian
# OVCAR-4 ovarian = system: OVCAR-4 ovarian
# OVCAR-5 ovarian = system: OVCAR-5 ovarian
# OVCAR-8 ovarian = system: OVCAR-8 ovarian
# RPMI-8226 leukemia = system: RPMI-8226 leukemia
# RXF 393 renal = system: RXF 393 renal
# SF-268 CNS = system: SF-268 CNS
# SF-295 CNS = system: SF-295 CNS
# SF-539 CNS = system: SF-539 CNS
# SK-MEL-2 melanoma = system: SK-MEL-2 melanoma
# SK-MEL-28 melanoma = system: SK-MEL-28 melanoma
# SK-MEL-5 melanoma = system: SK-MEL-5 melanoma
# SK-OV-3 ovarian = system: SK-OV-3 ovarian
# SN12C renal = system: SN12C renal
# SNB-75 CNS = system: SNB-75 CNS
# SNB-78 CNS = system: SNB-78 CNS
# SR leukemia = system: SR leukemia
# SW-620 colon = system: SW-620 colon
# TK-10 renal = system: TK-10 renal
# U251 CNS = system: U251 CNS
# UACC-62 melanoma = system: UACC-62 melanoma
# A498 renal = system: A498 renal
# COLO 205 colon = system: COLO 205 colon
# DMS 273 small cell lung = system: DMS 273 small cell lung
# NCI-H23 lung = system: NCI-H23 lung
# UACC-257 melanoma = system: UACC-257 melanoma
# XF 498 CNS = system: XF 498 CNS
smiles,measurement,setting,value
Cc1cccc(C2SCc3nc4ccccc4n32)c1 (stereo not drawn),TGI,786-0 renal,96.2 µM
same,TGI,A549 NSCLC,> 100 µM
same,TGI,ACHN renal,> 100 µM
same,TGI,CAKI-1 renal,> 100 µM
same,TGI,CCRF-CEM leukemia,> 100 µM
same,TGI,DLD-1 colon,75.9 µM
same,TGI,DMS 114 small cell lung,28.3 µM
same,TGI,EKVX NSCLC,68.4 µM
same,TGI,HCT-116 colon,56.7 µM
same,TGI,HCT-15 colon,54.5 µM
same,TGI,HL-60(TB) leukemia,33.5 µM
same,TGI,HOP-62 NSCLC,66.6 µM
same,TGI,HOP-92 NSCLC,47.9 µM
same,TGI,HT29 colon,> 100 µM
same,TGI,IGROV1 ovarian,> 100 µM
same,TGI,K-562 leukemia,> 100 µM
same,TGI,KM12 colon,79.8 µM
same,TGI,LOX IMVI melanoma,> 100 µM
same,TGI,LXFL 529 NSCLC,> 100 µM
same,TGI,M14 melanoma,> 100 µM
same,TGI,M19-MEL melanoma,96.8 µM
same,TGI,MALME-3M melanoma,49.6 µM
same,TGI,MOLT-4 leukemia,> 100 µM
same,TGI,NCI-H226 lung,60.9 µM
same,TGI,NCI-H460 lung,> 100 µM
same,TGI,NCI-H522 lung,60.7 µM
same,TGI,OVCAR-3 ovarian,39.1 µM
same,TGI,OVCAR-4 ovarian,> 100 µM
same,TGI,OVCAR-5 ovarian,65.8 µM
same,TGI,OVCAR-8 ovarian,> 100 µM
same,TGI,RPMI-8226 leukemia,> 100 µM
same,TGI,RXF 393 renal,43.9 µM
same,TGI,SF-268 CNS,> 100 µM
same,TGI,SF-295 CNS,> 100 µM
same,TGI,SF-539 CNS,> 100 µM
same,TGI,SK-MEL-2 melanoma,52.6 µM
same,TGI,SK-MEL-28 melanoma,65.7 µM
same,TGI,SK-MEL-5 melanoma,28.3 µM
same,TGI,SK-OV-3 ovarian,72.9 µM
same,TGI,SN12C renal,96.8 µM
same,TGI,SNB-75 CNS,20.7 µM
same,TGI,SNB-78 CNS,99.4 µM
same,TGI,SR leukemia,64.2 µM
same,TGI,SW-620 colon,> 100 µM
same,TGI,TK-10 renal,56.8 µM
same,TGI,U251 CNS,47.2 µM
same,TGI,UACC-62 melanoma,> 100 µM
N/C(=N\N=C\c1ccc(C(F)(F)F)cc1)NO,TGI,786-0 renal,37.7 µM
same,TGI,A498 renal,> 100 µM
same,TGI,A549 NSCLC,59.2 µM
same,TGI,ACHN renal,25.6 µM
same,TGI,CAKI-1 renal,38.1 µM
same,TGI,CCRF-CEM leukemia,95.5 µM
same,TGI,COLO 205 colon,38.7 µM
same,TGI,DLD-1 colon,> 100 µM
same,TGI,DMS 114 small cell lung,> 100 µM
same,TGI,DMS 273 small cell lung,59.9 µM
same,TGI,EKVX NSCLC,33.7 µM
same,TGI,HCT-116 colon,> 100 µM
same,TGI,HL-60(TB) leukemia,46.3 µM
same,TGI,HOP-62 NSCLC,55 µM
same,TGI,HOP-92 NSCLC,58.8 µM
same,TGI,HT29 colon,> 100 µM
same,TGI,IGROV1 ovarian,33.2 µM
same,TGI,K-562 leukemia,> 100 µM
same,TGI,KM12 colon,> 100 µM
same,TGI,LXFL 529 NSCLC,> 100 µM
same,TGI,M14 melanoma,29.2 µM
same,TGI,M19-MEL melanoma,> 100 µM
same,TGI,MALME-3M melanoma,> 100 µM
same,TGI,NCI-H23 lung,52.9 µM
same,TGI,NCI-H460 lung,> 100 µM
same,TGI,NCI-H522 lung,50.4 µM
same,TGI,OVCAR-3 ovarian,62.9 µM
same,TGI,OVCAR-4 ovarian,> 100 µM
same,TGI,OVCAR-8 ovarian,41.2 µM
same,TGI,RXF 393 renal,> 100 µM
same,TGI,SF-268 CNS,61 µM
same,TGI,SF-295 CNS,> 100 µM
same,TGI,SF-539 CNS,50.6 µM
same,TGI,SK-MEL-2 melanoma,92 µM
same,TGI,SK-MEL-28 melanoma,> 100 µM
same,TGI,SK-OV-3 ovarian,> 100 µM
same,TGI,SN12C renal,> 100 µM
same,TGI,SNB-75 CNS,> 100 µM
same,TGI,SNB-78 CNS,> 100 µM
same,TGI,SR leukemia,> 100 µM
same,TGI,SW-620 colon,> 100 µM
same,TGI,TK-10 renal,> 100 µM
same,TGI,U251 CNS,87.3 µM
same,TGI,UACC-257 melanoma,> 100 µM
same,TGI,UACC-62 melanoma,21.7 µM
same,TGI,XF 498 CNS,51 µM
